One block for each molecule: values may come before it.
Assays:
BACE1 [1] = biological target: T1, BACE1 (Homo sapiens, UniProt P56817); test: In Vitro Enzymatic BACE FRET (Fluorescence Resonance Energy Transfer) Assay; format: biochemical
In short: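 Acetate buffer at pH 4.2 with 10% DMSO and 100 uM genapol hosts the enzymatic reaction, initiated by 50 nM FRET substrate and allowed to proceed one hour. Tris quench to neutral pH precedes the fluorescence measurement.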

BACE1 [2] = biological target: T1, BACE1; test: In Vitro BACE Cell-based Assay (HEK cell assay): Aβ40 in conditioned medium of cells stably expressing Amyloid Precursor Protein, sandwich ELISA
In short: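 Read-out is time-resolved fluorescence of Aβ40 in supernatant, captured by pAb40 and detected with biotinylated 6E10 plus Streptavidin-Europium. Cells stably expressing APP received compounds for 24 h over 10 concentrations starting at 100 μM or 10 μM, final DMSO 0.1%.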

[3] = Table III, IC50's in uM ranges, read-out: BACE1 FRET assay
[4] = Table III, IC50's in uM ranges, read-out: HEK cell assay
[5] = Table IV, class symbols, read-out: BACE1 FRET assay
[6] = Table IV, class symbols, read-out: HEK cell assay
[7] = HEK cells, read-out: HEK cell assay
[8] = in vitro BACE FRET enzyme assay, IC50 class symbols, read-out: BACE1 FRET assay
[9] = HEK cell-based assay, Aβ40 in conditioned medium, IC50 class symbols, read-out: HEK cell assay

T1 sequence (P56817 46-501, species assumed): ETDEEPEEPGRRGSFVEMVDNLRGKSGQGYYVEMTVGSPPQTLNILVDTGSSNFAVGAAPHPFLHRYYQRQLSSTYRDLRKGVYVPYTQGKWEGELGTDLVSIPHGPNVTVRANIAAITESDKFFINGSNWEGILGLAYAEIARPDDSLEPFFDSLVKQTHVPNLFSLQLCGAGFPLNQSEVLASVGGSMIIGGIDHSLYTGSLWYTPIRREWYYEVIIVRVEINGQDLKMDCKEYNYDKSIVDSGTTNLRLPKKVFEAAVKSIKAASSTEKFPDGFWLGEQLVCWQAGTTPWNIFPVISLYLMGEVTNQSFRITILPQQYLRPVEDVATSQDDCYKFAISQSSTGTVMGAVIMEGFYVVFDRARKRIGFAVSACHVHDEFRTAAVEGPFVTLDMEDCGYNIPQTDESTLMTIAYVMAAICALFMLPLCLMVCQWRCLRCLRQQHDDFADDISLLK

Compound: NC1=N[C@@]2(CO1)c1cc(-c3cccnc3F)ccc1Oc1cnc(-c3ccncc3)cc12 [Example 515, (5S)-7-(2-fluoro-3-pyridinyl)-3-(4-pyridinyl)spiro[chromeno[2,3-c]pyridine-5,4′-[1,3]oxazol]-2′-amine]
IC50 (BACE1 [1]; BACE1 FRET assay (uM)): < 0.1 µM
IC50 (BACE1 [2]; HEK cell assay (uM), HEK cells): < 0.1 µM

Compound: CC(C)(F)COc1cc(F)c2c(c1)[C@]1(COC(N)=N1)c1cc(-c3cccnc3)ccc1O2 [compound 381]
IC50 (BACE1 [1]; [8]): < 0.1 µM
IC50 (BACE1 [2]; [9]): < 0.1 µM

Compound: COC(C)(C)COc1cnc2c(c1)[C@]1(COC(N)=N1)c1cc(-c3ccccc3)ccc1O2 [compound 350]
IC50 (BACE1 [1]; [8]): < 0.1 µM
IC50 (BACE1 [2]; [9]): < 0.1 µM

Compound: CC(C)Cn1cc(-c2ccc3c(c2)[C@]2(COC(N)=N2)c2cc(-c4cccnc4)ccc2O3)cn1 [compound 708]
IC50 (BACE1 [1]; read-out: BACE1 FRET assay): < 0.1 µM
IC50 (BACE1 [2]; read-out: HEK cell assay): 0.1 to 1 µM

Compound: NC1=N[C@@]2(CO1)c1cc(-c3ccccc3)ccc1Oc1ncc(N3C[C@@H]4C[C@H]3CO4)cc12 [compound 454]
IC50 (BACE1 [1]; read-out: BACE1 FRET assay): < 0.1 µM
IC50 (BACE1 [2]; [7]): < 0.1 µM

Compound: NC1=N[C@@]2(CO1)c1cc(-c3cccnc3)ccc1Oc1cnc(C(=O)CCCCO)cc12 [compound 612]
IC50 (BACE1 [1]; [5]): < 0.1 µM
IC50 (BACE1 [2]; [6]): 0.1 to 1 µM

Compound: CC(C)(C)COc1ccc2c(c1)[C@]1(COC(N)=N1)c1cc(-c3csc(-n4ccnc4)n3)ccc1O2 [compound 214]
IC50 (BACE1 [1]; [3]): 0.1 to 1 µM
IC50 (BACE1 [2]; [4]): 1 to 5 µM

Compound: CC(C)(C)CCc1cc2c(cn1)Oc1ccc(-c3cncnc3)cc1[C@@]21COC(N)=N1 [compound 455]
IC50 (BACE1 [1]; read-out: BACE1 FRET assay): < 0.1 µM
IC50 (BACE1 [2]; [7]): < 0.1 µM

Compound: NC1=N[C@@]2(CO1)c1cc(-c3cncnc3)ccc1Oc1ccc(-c3cccc(OC(F)(F)F)c3)cc12 [compound 839]
IC50 (BACE1 [1]; [5]): < 0.1 µM
IC50 (BACE1 [2]; [6]): 1 to 5 µM

Compound: CC(C)(C)COc1ccc2c(c1)[C@@]1(COC(N)=N1)c1cc(-c3cncnc3)cc(F)c1O2 [155a]
IC50 (BACE1 [1]; [3]): < 0.1 µM
IC50 (BACE1 [2]; [4]): 0.1 to 1 µM

Compound: CC(C)(C)COc1ccc2c(c1)[C@@]1(COC(N)=N1)c1cc(-c3ccc(F)nc3)cnc1O2 [compound 951]
IC50 (BACE1 [1]; read-out: BACE1 FRET assay): < 0.1 µM
IC50 (BACE1 [2]; read-out: HEK cell assay): < 0.1 µM

Compound: CC(C)(C)C#Cc1ccc2c(n1)[C@]1(COC(N)=N1)c1cc(-c3cccnc3)ccc1O2 [compound 854]
IC50 (BACE1 [1]; [5]): < 0.1 µM
IC50 (BACE1 [2]; [6]): < 0.1 µM

Continued, values first:

IC50 (BACE1 [1]; [3]): < 0.1 µM
IC50 (BACE1 [2]; [4]): < 0.1 µM
Compound: COC(C)(C)CCc1ccc2c(c1)[C@]1(COC(N)=N1)c1cc(-c3cncnc3)ccc1O2 [Example 122, (R)-2′-(3-methoxy-3-methylbutyl)-7′-(pyrimidin-5-yl)-5H-spiro[oxazole-4,9′-xanthen]-2-amine]

IC50 (BACE1 [1]; read-out: BACE1 FRET assay): 1 to 5 µM
IC50 (BACE1 [2]; read-out: HEK cell assay): > 5 µM
Compound: NC1=N[C@@]2(CO1)c1cc(Br)ccc1Oc1ccc(C#CC3(O)COC3)cc12 [compound 682]

IC50 (BACE1 [1]; [5]): < 0.1 µM
IC50 (BACE1 [2]; [6]): 0.1 to 1 µM
Compound: COC(=O)c1ccc2c(c1)[C@@]1(COC(N)=N1)c1cc(OCC(C)(C)C)ccc1O2 [compound 875]

IC50 (BACE1 [1]; [5]): 1 to 5 µM
IC50 (BACE1 [2]; [6]): 1 to 5 µM
Compound: COc1ccc2c(c1)[C@]1(COC(N)=N1)c1cc(NC(=O)[C@H](C)OC)ccc1O2 [compound 535]

IC50 (BACE1 [1]; read-out: BACE1 FRET assay): < 0.1 µM
IC50 (BACE1 [2]; [7]): < 0.1 µM
Compound: NC1=N[C@@]2(CO1)c1cc(-c3cccc(Cl)c3)ccc1Oc1cnc(C3=CCOCC3)cc12 [compound 427, (5S)-7-(3-chlorophenyl)-3-(3,6-dihydro-2H-pyran-4-yl)spiro[chromeno[2,3-c]pyridine-5,4′-[1,3]oxazol]-2′-amine]

IC50 (BACE1 [1]; [3]): 0.1 to 1 µM
IC50 (BACE1 [2]; [4]): 1 to 5 µM
Compound: NC1=N[C@]2(CO1)c1cc(Br)ccc1Oc1ccc(Oc3ccccn3)cc12 [compound 198, (4S)-2′-bromo-7′-(2-pyridinyloxy)spiro[1,3-oxazole-4,9′-xanthen]-2-amine]

IC50 (BACE1 [1]; Table II, read-out: BACE1 FRET assay): < 0.1 µM
IC50 (BACE1 [2]; Table II, Aβ40, 24 h incubation, read-out: HEK cell assay): 0.1 to 1 µM
Compound: CC(C)(C)COc1ccc2c(c1)[C@]1(COC(N)=N1)c1cc(C#CC3CC3)cnc1O2 [compound 45]

IC50 (BACE1 [1]; read-out: BACE1 FRET assay): 0.1 to 1 µM
IC50 (BACE1 [2]; read-out: HEK cell assay): 0.1 to 1 µM
Compound: COC(C)(C)C#Cc1ccc2c(c1)[C@@]1(COC(N)=N1)c1cc(OCC(C)(C)O)ccc1O2 [compound 768]

IC50 (BACE1 [1]; [8]): < 0.1 µM
IC50 (BACE1 [2]; [9]): < 0.1 µM
Compound: NC1=N[C@@]2(CO1)c1cc(-c3cccnc3)ccc1Oc1cnc(N3CCOCC3)cc12 [compound 335]

IC50 (BACE1 [1]; read-out: BACE1 FRET assay): 0.1 to 1 µM
IC50 (BACE1 [2]; read-out: HEK cell assay): 1 to 5 µM
Compound: CC(C)(C)COc1ccc2c(c1)[C@]1(COC(N)=N1)c1cc(C3CCOCC3)ccc1O2 [compound 747]

IC50 (BACE1 [1]; Table 1, read-out: BACE1 FRET assay): 0.1 to 1 µM
IC50 (BACE1 [2]; Table 1, Aβ40, 24 h incubation, read-out: HEK cell assay): 1 to 5 µM
Compound: CCCOc1ccc2c(c1)[C@@]1(COC(N)=N1)c1cc(-c3cncnc3)ccc1O2 [Example 11, (4R)-2′-propoxy-7′-(5-pyrimidinyl)spiro[1,3-oxazole-4,9′-xanthen]-2-amine]

IC50 (BACE1 [1]; [5]): 0.1 to 1 µM
IC50 (BACE1 [2]; [6]): 1 to 5 µM
Compound: COC(=O)c1ccc2c(c1)[C@@]1(COC(N)=N1)c1cc(OCC(C)(C)C)ccc1O2 [compound 850]

IC50 (BACE1 [1]; read-out: BACE1 FRET assay): < 0.1 µM
IC50 (BACE1 [2]; [7]): < 0.1 µM
Compound: NC1=N[C@]2(CO1)c1cc(C3=CCOCC3)ccc1Oc1cc(F)c(-c3cccnc3)cc12 [compound 492]

IC50 (BACE1 [1]; [5]): 1 to 5 µM
IC50 (BACE1 [2]; [6]): > 5 µM
Compound: NC1=N[C@@]2(CO1)c1cc(Br)ccc1Oc1ccc(/C=C/C(=O)O)cc12 [compound 919]

Source: US8426447B2, “Spiro-tricyclic ring compounds as beta-secretase modulators and methods of use” (Amgen Inc., priority 2008, dated 2013)
